# In patent publication US11110102B2, “Antifungal agents used in combination” (Scynexis, Inc., priority 2017, dated 2021):
# Where “and” joins values, the source holds several entries; their conditions need not be identical. Identical values can stand only once.
# Tests used:
# Assay in all cases: Checkerboard combination MIC testing
# Format in all cases: cell-based, Aspergillus fumigatus
# A. fumigatus MRL #28500 = details: read at 48 hours, duplicate
# Description: (§1) To determine the type of interaction between a representative compound of the enfumafungin derivatives (SCY-078) with several antifungal agents against Aspergillus fumigatus, the most frequent mold causing invasive disease in humans, the checkerboard method was used. The citrate salt of the compound was used in the studies.
# (§2) The checkerboard method involves the determination of percent growth inhibition of fungal cells in the presence of different combinations of drugs. Percent growth inhibition is calculated relative to growth in control wells which contain only cells and no drug. The assay was performed in 96-well microplates in which each row and each column contained twofold serial dilutions of drug A and drug B at concentrations ranging from 0 to slightly higher than their minimum inhibitory concentration (MIC). […] Then the inoculum was added to each well and the growth was evaluated after 48 hrs incubation to determine the first well in which growth was inhibited. The checkerboard-based determination of MICs of antifungal agents in combination was followed by further analysis employing the nonparametric fractional inhibitory concentration index (FICI), which is defined by the following equation:
# (§3) [formula] where MIC-A and MIC-B are the MICs of drugs A and B, respectively.
# (§4) Each drug was initially diluted in either sterile, distilled water or in DMSO, depending on whether the drug was water-soluble or water-insoluble, respectively.
# (§5) Stock solution of SCY-078 was prepared in DMSO at 200 times the concentration desired for use in the drug plates. Serial dilutions of stock solution were conducted in DMSO to obtain eleven 2-fold dilutions of the drug. The SCY-078 solution was then diluted to 4 times the desired concentration in RPMI-1640 medium so that the DMSO would not limit growth of the organism and so that the quantity of DMSO was the same for every dilution.
# (§6) Two 96-well plates are needed to conduct a combination test. Using a multichannel pipette, 50 μl of the lowest concentration of the first drug (Drug A) was added to each well of column 1 of the first plate (plate A) and column 1 of the second plate (plate B; rows A-D). Then, 50 μl of the next highest working dilution of Drug A was added to each well in column 2, continuing with dilutions until all columns 1-11 were filled. Column 12 was left empty. 50 μl of the lowest concentration of Drug B was added to each well in Row D of plate B. 50 μl of the next highest working dilution of Drug B was added to each well in row C of plate B, continuing with dilutions until all rows through row B of plate A were filled.
# (§7) Following the above, 100 μl of organism inoculum was added to every well. The plates were then incubated for 48 hours and visually read after incubation.
# (§8) The objective of the study was to determine whether the combination of SCY-078 with voriconazole, isavuconazole, or amphotericin B would result in a combined in vitro antifungal activity exceeding the sum of the activities of each drug alone. Combination MIC testing was performed using the checkerboard assay described above.
# A. fumigatus 28500 has a CYP51 mutation at F46Y.
# (§9) Initial MIC determinations of the individual antifungals were performed according to the Clinical and Laboratory Standards Institute (CLSI) M38-A2 standard for the susceptibility testing of filamentous fungi.
# (§10) Combination MIC testing was performed using a checkerboard test method according to the Center for Medical Mycology SOP A11.3. The checkerboard combination test method is a modification of the microdilution antifungal susceptibility test wherein two test compounds are combined in varying concentrations to determine whether they have synergistic, antagonistic, or no effect on the respective MIC values.
# Antifungals were serially diluted two-fold in RPMI medium to produce eleven concentrations each and were combined in wells of a microtiter plate. Two rows consisting of serial dilutions of each individual drug were included. […]
# A. fumigatus MRL #28378 = details: A. fumigatus MRL 28378 (wild-type), read at 48 hours, duplicate
# Description: as §1, §2, §3, §4, §5, §6, §7, §8, §9, §10
# (§11) Antifungals were serially diluted two-fold in RPMI medium to produce eleven concentrations each and were combined in wells of a microtiter plate. Two rows consisting of serial dilutions of each individual drug were included. All combination testing was conducted in duplicate. […]
# A. fumigatus MRL #28401 = details: A. fumigatus MRL 28401 (wild-type), read at 48 hours, duplicate
# Description: as §1, §2, §3, §4, §5, §6, §7, §8, §9, §10, §11
# A. fumigatus MRL #20438 = details: A. fumigatus MRL 20438 (wild-type), read at 48 hours, duplicate
# Description: as §1, §2, §3, §4, §5, §6, §7, §8, §9, §10, §11
# A. fumigatus MRL #28382 = details: A. fumigatus MRL 28382 (wild-type), read at 48 hours, duplicate
# Description: as §1, §2, §3, §4, §5, §6, §7, §8, §9, §10, §11
# A. fumigatus MRL #28383 = details: A. fumigatus MRL 28383 (azole-resistant), read at 48 hours, duplicate
# Description: as §1, §2, §3, §4, §5, §6, §7, §8, §9, §10, §11
# [1] = SCY-078 combined with amphotericin B
# [2] = drug alone, SCY-078/amphotericin B test
# [3] = Aspergillus fumigatus, SCY078, 48 h, drug alone, SCY-078/voriconazole test, read-out: MIC Alone
# [4] = SCY-078 combined with voriconazole
compound,measurement,setting,value
"C[C@@H]1[C@H](O)[C@@H](C)/C=C/C=C/C=C/C=C/C=C/C=C/C=C/[C@H](O[C@@H]2O[C@H](C)[C@@H](O)[C@H](N)[C@@H]2O)C[C@@H]2O[C@](O)(C[C@@H](O)C[C@@H](O)[C@H](O)CC[C@@H](O)C[C@@H](O)CC(=O)O[C@H]1C)C[C@H](O)[C@H]2C(=O)O [Amphotericin B, amphotericin B]",MIC in Combination,"A. fumigatus MRL #28500; A. fumigatus MRL 28500 (azole-resistant, CYP51 F46Y), SCY-078 combined with amphotericin B",1 µg/mL
same,MIC Alone,"A. fumigatus MRL #28500; A. fumigatus MRL 28500 (azole-resistant, CYP51 F46Y), drug alone, SCY-078/amphotericin B test",4 µg/mL
same,MIC in Combination,A. fumigatus MRL #28378; [1],0.5 µg/mL
same,MIC Alone,A. fumigatus MRL #28378; [2],2 µg/mL
same,MIC in Combination,A. fumigatus MRL #28401; [1],1 µg/mL and 0.5 µg/mL
same,MIC Alone,A. fumigatus MRL #28401; [2],4 µg/mL
same,MIC in Combination,A. fumigatus MRL #20438; [1],0.5 µg/mL
same,MIC Alone,A. fumigatus MRL #20438; [2],4 µg/mL
same,MIC in Combination,A. fumigatus MRL #28382; [1],1 µg/mL and 0.5 µg/mL
same,MIC Alone,A. fumigatus MRL #28382; [2],4 µg/mL
same,MIC in Combination,A. fumigatus MRL #28383; [1],4 µg/mL and 2 µg/mL
same,MIC Alone,A. fumigatus MRL #28383; [2],4 µg/mL and 2 µg/mL
"C[C@@H](c1ncncc1F)[C@](O)(Cn1cncn1)c1ccc(F)cc1F [Voriconazole, voriconazole]",MIC in Combination,"A. fumigatus MRL #28500; A. fumigatus MRL 28500 (azole-resistant, CYP51 F46Y), SCY-078 combined with voriconazole",>16 µg/mL
same,MIC,"A. fumigatus MRL #28500; Aspergillus fumigatus, SCY078, 48 h, read-out: MIC Alone, A. fumigatus MRL 28500 (azole-resistant, CYP51 F46Y), drug alone, SCY-078/voriconazole test",> 16 µg/mL
same,MIC Alone,"A. fumigatus MRL #28378; drug alone, SCY-078/voriconazole test",0.25 µg/mL
same,MIC,A. fumigatus MRL #28378; [3],0.5 µg/mL
same,MIC in Combination,A. fumigatus MRL #28401; [4],0.5 µg/mL
same,MIC,A. fumigatus MRL #28401; [3],2 µg/mL
same,MIC in Combination,A. fumigatus MRL #20438; [4],0.25 µg/mL
same,MIC,A. fumigatus MRL #20438; [3],1 µg/mL
same,MIC in Combination,A. fumigatus MRL #28382; [4],0.125 µg/mL and 0.25 µg/mL
same,MIC,A. fumigatus MRL #28382; [3],0.5 µg/mL
same,MIC in Combination,A. fumigatus MRL #28383; [4],>16 µg/mL
same,MIC,A. fumigatus MRL #28383; [3],> 16 µg/mL
